{
  "source": "patent US11304934B2",
  "about": "“Use of isoxazoline derivatives for the treatment or prevention of arthropod infestations in poultry” (Intervet Inc., priority 2013, dated 2022)",
  "key": {"[1]": {"system": "Dermanyssus gallinae", "experiment": "Efficacy of fluralaner via medicated drinking water against artificially induced poultry red mite infestations of laying hens", "type": "in vivo", "conditions": "for % Inhibition of mites 24 hours after infestation / % Mortality of mites 24 hours after infestation: laying hens", "experimental": "(§1) Groups A-D (n=6) were treated with doses of 2, 1 and 0.5 mg fluralaner/kg BW once or 1 mg fluralaner/kg BW split dose (0.5 mg/kg BW on 2 occasions).\nDrinking water consumption in each was measured on three days prior to administration to calculate the average daily water consumption. Medicated water was prepared by diluting a fluralaner solution (10 mg/mL) as shown in the table below to the calculated fluralaner concentration.\n(§2) On D0 (group D additionally on D7), the hens in groups A-D received fluralaner via medicated drinking water. Group E received un-medicated drinking water ad libitum.\nThe dose to be administered was calculated based on average body weights of each treatment group, obtained one day before treatment (D-1, D6). A fluralaner stock solution was diluted in the drinking water to prepare medicated water ready for consumption.\nThe volume of medicated water offered per group on D0 (group D also on D7) was approximately 50% of the calculated mean daily water intake measured previously in the respective group in order to ensure consumption of the full dose.\nOnce all medicated water was consumed the other 50% volume of the mean daily water intake was supplied as tap water in the same drinker.\nOn Day 1, Day 5, Day 8, Day 12, D15, D19 and D22 four of six hens per group were infested with approximately 200 vital, D. gallinae mites (unfed nymphs and adults that starved before infestation for 7 days).\nFrom each infested hen approximately 25 engorged mites were collected and incubated for approximately 24 hours. The dead, damaged and/or live mites were counted visually using a binocular.\nMites were classified as dead if no movement was determined or mites lay in a dorsal position. Mites were classified as damaged if their movement was uncoordinated.\nThe Mite Mortality and Mite Inhibition percentage was calculated for each treated group in comparison to a not-treated negative control group."}, "[2]": {"experiment": "Tolerability of fluralaner via medicated drinking water in hens", "type": "in vivo, laying hens", "conditions": "2, 1, 0.5 mg/kg BW once or 2 × 0.5 mg/kg BW via medicated drinking water", "experimental": "as §1, §2"}, "[3]": {"conditions": "Group A, 2 mg/kg BW once (D0) via drinking water, infestation on D1"}, "[4]": {"conditions": "Group A, 2 mg/kg BW once (D0) via drinking water, infestation on D5"}, "[5]": {"conditions": "Group A, 2 mg/kg BW once (D0) via drinking water, infestation on D8"}, "[6]": {"conditions": "Group A, 2 mg/kg BW once (D0) via drinking water, infestation on D12"}, "[7]": {"conditions": "Group A, 2 mg/kg BW once (D0) via drinking water, infestation on D15"}, "[8]": {"conditions": "Group A, 2 mg/kg BW once (D0) via drinking water, infestation on D19"}, "[9]": {"conditions": "Group A, 2 mg/kg BW once (D0) via drinking water, infestation on D22"}, "[10]": {"conditions": "Group B, 1 mg/kg BW once (D0) via drinking water, infestation on D1"}, "[11]": {"conditions": "Group B, 1 mg/kg BW once (D0) via drinking water, infestation on D5"}, "[12]": {"conditions": "Group B, 1 mg/kg BW once (D0) via drinking water, infestation on D8"}, "[13]": {"conditions": "Group B, 1 mg/kg BW once (D0) via drinking water, infestation on D12"}, "[14]": {"conditions": "Group B, 1 mg/kg BW once (D0) via drinking water, infestation on D15"}, "[15]": {"conditions": "Group B, 1 mg/kg BW once (D0) via drinking water, infestation on D19"}, "[16]": {"conditions": "Group B, 1 mg/kg BW once (D0) via drinking water, infestation on D22"}, "[17]": {"conditions": "Group C, 0.5 mg/kg BW once (D0) via drinking water, infestation on D1"}, "[18]": {"conditions": "Group C, 0.5 mg/kg BW once (D0) via drinking water, infestation on D5"}, "[19]": {"conditions": "Group C, 0.5 mg/kg BW once (D0) via drinking water, infestation on D8"}, "[20]": {"conditions": "Group C, 0.5 mg/kg BW once (D0) via drinking water, infestation on D12"}, "[21]": {"conditions": "Group C, 0.5 mg/kg BW once (D0) via drinking water, infestation on D15"}, "[22]": {"conditions": "Group C, 0.5 mg/kg BW once (D0) via drinking water, infestation on D19"}, "[23]": {"conditions": "Group C, 0.5 mg/kg BW once (D0) via drinking water, infestation on D22"}, "[24]": {"conditions": "Group D, 1 (2 × 0.5) mg/kg BW split dose on D0 and D7 via drinking water, infestation on D1"}, "[25]": {"conditions": "Group D, 1 (2 × 0.5) mg/kg BW split dose on D0 and D7 via drinking water, infestation on D5"}, "[26]": {"conditions": "Group D, 1 (2 × 0.5) mg/kg BW split dose on D0 and D7 via drinking water, infestation on D8"}, "[27]": {"conditions": "Group D, 1 (2 × 0.5) mg/kg BW split dose on D0 and D7 via drinking water, infestation on D12"}, "[28]": {"conditions": "Group D, 1 (2 × 0.5) mg/kg BW split dose on D0 and D7 via drinking water, infestation on D15"}, "[29]": {"conditions": "Group D, 1 (2 × 0.5) mg/kg BW split dose on D0 and D7 via drinking water, infestation on D19"}, "[30]": {"conditions": "Group D, 1 (2 × 0.5) mg/kg BW split dose on D0 and D7 via drinking water, infestation on D22"}},
  "data": [
    {"smiles": "Cc1cc(C2=NOC(c3cc(Cl)cc(Cl)c3)(C(F)(F)F)C2)ccc1C(=O)NCC(=O)NCC(F)(F)F", "note": "(stereo not shown) [fluralaner, 4-[5-(3,5-Dichlorophenyl)-5-trifluoromethyl-4,5-dihydroisoxazol-3-yl]-2-methyl-N-[(2,2,2-trifluoro-ethylcarbamoyl)-methyl]-benzamide]", "values": [
      {"measurement": "% Inhibition of mites 24 hours after infestation", "setting": "[1]; [3]", "result": 100, "unit": "%"},
      {"measurement": "% Mortality of mites 24 hours after infestation", "setting": "[1]; [3]", "result": 100, "unit": "%"},
      {"measurement": "% Inhibition of mites 24 hours after infestation", "setting": "[1]; [4]", "result": 100, "unit": "%"},
      {"measurement": "% Mortality of mites 24 hours after infestation", "setting": "[1]; [4]", "result": 100, "unit": "%"},
      {"measurement": "% Inhibition of mites 24 hours after infestation", "setting": "[1]; [5]", "result": 100, "unit": "%"},
      {"measurement": "% Mortality of mites 24 hours after infestation", "setting": "[1]; [5]", "result": 100, "unit": "%"},
      {"measurement": "% Inhibition of mites 24 hours after infestation", "setting": "[1]; [6]", "result": 100, "unit": "%"},
      {"measurement": "% Mortality of mites 24 hours after infestation", "setting": "[1]; [6]", "result": 100, "unit": "%"},
      {"measurement": "% Inhibition of mites 24 hours after infestation", "setting": "[1]; [7]", "result": 81, "unit": "%"},
      {"measurement": "% Mortality of mites 24 hours after infestation", "setting": "[1]; [7]", "result": 77, "unit": "%"},
      {"measurement": "% Inhibition of mites 24 hours after infestation", "setting": "[1]; [8]", "result": 14, "unit": "%"},
      {"measurement": "% Mortality of mites 24 hours after infestation", "setting": "[1]; [8]", "result": 1, "unit": "%"},
      {"measurement": "% Inhibition of mites 24 hours after infestation", "setting": "[1]; [9]", "result": 0, "unit": "%"},
      {"measurement": "% Mortality of mites 24 hours after infestation", "setting": "[1]; [9]", "result": 0, "unit": "%"},
      {"measurement": "% Inhibition of mites 24 hours after infestation", "setting": "[1]; [10]", "result": 100, "unit": "%"},
      {"measurement": "% Mortality of mites 24 hours after infestation", "setting": "[1]; [10]", "result": 100, "unit": "%"},
      {"measurement": "% Inhibition of mites 24 hours after infestation", "setting": "[1]; [11]", "result": 100, "unit": "%"},
      {"measurement": "% Mortality of mites 24 hours after infestation", "setting": "[1]; [11]", "result": 100, "unit": "%"},
      {"measurement": "% Inhibition of mites 24 hours after infestation", "setting": "[1]; [12]", "result": 100, "unit": "%"},
      {"measurement": "% Mortality of mites 24 hours after infestation", "setting": "[1]; [12]", "result": 100, "unit": "%"},
      {"measurement": "% Inhibition of mites 24 hours after infestation", "setting": "[1]; [13]", "result": 95, "unit": "%"},
      {"measurement": "% Mortality of mites 24 hours after infestation", "setting": "[1]; [13]", "result": 94, "unit": "%"},
      {"measurement": "% Inhibition of mites 24 hours after infestation", "setting": "[1]; [14]", "result": 81, "unit": "%"},
      {"measurement": "% Mortality of mites 24 hours after infestation", "setting": "[1]; [14]", "result": 77, "unit": "%"},
      {"measurement": "% Inhibition of mites 24 hours after infestation", "setting": "[1]; [15]", "result": 3, "unit": "%"},
      {"measurement": "% Mortality of mites 24 hours after infestation", "setting": "[1]; [15]", "result": 2, "unit": "%"},
      {"measurement": "% Inhibition of mites 24 hours after infestation", "setting": "[1]; [16]", "result": 0, "unit": "%"},
      {"measurement": "% Mortality of mites 24 hours after infestation", "setting": "[1]; [16]", "result": 0, "unit": "%"},
      {"measurement": "% Inhibition of mites 24 hours after infestation", "setting": "[1]; [17]", "result": 100, "unit": "%"},
      {"measurement": "% Mortality of mites 24 hours after infestation", "setting": "[1]; [17]", "result": 100, "unit": "%"},
      {"measurement": "% Inhibition of mites 24 hours after infestation", "setting": "[1]; [18]", "result": 100, "unit": "%"},
      {"measurement": "% Mortality of mites 24 hours after infestation", "setting": "[1]; [18]", "result": 100, "unit": "%"},
      {"measurement": "% Inhibition of mites 24 hours after infestation", "setting": "[1]; [19]", "result": 100, "unit": "%"},
      {"measurement": "% Mortality of mites 24 hours after infestation", "setting": "[1]; [19]", "result": 97, "unit": "%"},
      {"measurement": "% Inhibition of mites 24 hours after infestation", "setting": "[1]; [20]", "result": 75, "unit": "%"},
      {"measurement": "% Mortality of mites 24 hours after infestation", "setting": "[1]; [20]", "result": 55, "unit": "%"},
      {"measurement": "% Inhibition of mites 24 hours after infestation", "setting": "[1]; [21]", "result": 19, "unit": "%"},
      {"measurement": "% Mortality of mites 24 hours after infestation", "setting": "[1]; [21]", "result": 15, "unit": "%"},
      {"measurement": "% Inhibition of mites 24 hours after infestation", "setting": "[1]; [22]", "result": 0, "unit": "%"},
      {"measurement": "% Mortality of mites 24 hours after infestation", "setting": "[1]; [22]", "result": 0, "unit": "%"},
      {"measurement": "% Inhibition of mites 24 hours after infestation", "setting": "[1]; [23]", "result": 0, "unit": "%"},
      {"measurement": "% Mortality of mites 24 hours after infestation", "setting": "[1]; [23]", "result": 0, "unit": "%"},
      {"measurement": "% Inhibition of mites 24 hours after infestation", "setting": "[1]; [24]", "result": 100, "unit": "%"},
      {"measurement": "% Mortality of mites 24 hours after infestation", "setting": "[1]; [24]", "result": 100, "unit": "%"},
      {"measurement": "% Inhibition of mites 24 hours after infestation", "setting": "[1]; [25]", "result": 100, "unit": "%"},
      {"measurement": "% Mortality of mites 24 hours after infestation", "setting": "[1]; [25]", "result": 100, "unit": "%"},
      {"measurement": "% Inhibition of mites 24 hours after infestation", "setting": "[1]; [26]", "result": 100, "unit": "%"},
      {"measurement": "% Mortality of mites 24 hours after infestation", "setting": "[1]; [26]", "result": 100, "unit": "%"},
      {"measurement": "% Inhibition of mites 24 hours after infestation", "setting": "[1]; [27]", "result": 100, "unit": "%"},
      {"measurement": "% Mortality of mites 24 hours after infestation", "setting": "[1]; [27]", "result": 100, "unit": "%"},
      {"measurement": "% Inhibition of mites 24 hours after infestation", "setting": "[1]; [28]", "result": 99, "unit": "%"},
      {"measurement": "% Mortality of mites 24 hours after infestation", "setting": "[1]; [28]", "result": 98, "unit": "%"},
      {"measurement": "% Inhibition of mites 24 hours after infestation", "setting": "[1]; [29]", "result": 66, "unit": "%"},
      {"measurement": "% Mortality of mites 24 hours after infestation", "setting": "[1]; [29]", "result": 59, "unit": "%"},
      {"measurement": "% Inhibition of mites 24 hours after infestation", "setting": "[1]; [30]", "result": 27, "unit": "%"},
      {"measurement": "% Mortality of mites 24 hours after infestation", "setting": "[1]; [30]", "result": 14, "unit": "%"},
      {"measurement": "Onset of action against red mites", "setting": "[1]; all administered doses, orally via drinking water", "result": "fast onset of action"},
      {"measurement": "Tolerability in hens", "setting": "[2]", "result": "well tolerated"}
    ]}
  ]
}
